{"source": "patent US20210176992A1", "about": "“FU[…] COMBINATION OF A CL[…] AND AN AZOLE” (Bayer Aktiengesellschaft, priority 2018, published 2021)", "key": {"Fusarium": {"system": "Fusarium", "test": "Field trial winter wheat 2017, visual assessment of Fusarium control", "format": "in vivo", "conditions": "Laacherhof 2017, application at growth stage 63-65, evaluation Jun. 20, 2017, J1446 500 g/ha, prothioconazole 125 g a.i./ha, control 38% infestation", "protocol": "(§1) Impact of Different Compounds on Fusarium Infestation and the DON Content; Field Trial Winter Wheat 2017 at the Laacherhof, Germany\n(§2) Application was done on Jun. 1, 2017 at growth stage 63-65. Evaluation was done Jun. 20, 2017. Quantification of deoxynivalenol was performed by LC-MS/MS analysis using a Waters UPLC coupled to a Sciex API4000 mass spectrometer. The column used was a Waters Acquity HSS T3 (2.1×50 mm, 1.8 μm) and solvents were 2 mM ammonium acetate/1% acedic acid and methanol/2 mM ammonium acetate/1% acetic acid used in a 4 min gradient. The mass spectrometer was operated in negative ionization mode (MRM transitions: deoxynivalenol 355>265, 3-acetyl-deoxynivalenol 387>307, respectively). Quantification was performed by external calibration using reference compounds.\n(§3) On the other hand, whereas infestation was lower upon application of C. rosea J1446 alone (45 vs. 63%), DON reduction after application of the combination of prothioconazole and C. rosea J1446 was even bigger (60 vs. 30%)."}, "DON content": {"system": "DON content", "test": "Field trial winter wheat 2017, deoxynivalenol quantification by LC-MS/MS", "format": "in vivo", "conditions": "Laacherhof 2017, application at growth stage 63-65, J1446 500 g/ha, prothioconazole 125 g a.i./ha, control 3583 ppb DON content", "protocol": "as §1, §2, §3"}}, "note": "Where “and” joins values, the source holds several entries; their conditions need not be identical. Equal entries are not always repeated."}
{"smiles": "OC(Cc1ccccc1Cl)(Cn1nc[nH]c1=S)C1(Cl)CC1", "note": "(stereo not drawn) [Prothioconazole, prothioconazole]", "values": [{"measurement": "Visual Assessment Fusarium-Control", "setting": "Fusarium", "value": 66, "unit": "%"}, {"measurement": "DON Reduction", "setting": "DON content", "value": 41, "unit": "%"}, {"measurement": "DON Reduction", "setting": "DON content; listed as prothioconazole", "value": "40% and 41%"}]}
